Reference: ChEMBL document CHEMBL1201862, “PubChem BioAssay data set” (2004)
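Where inhibition never reached the appropriate level, the endpoint shown equals the highest concentration tested. Otherwise, values were interpolated linearly from a five-concentration, 48-hour dose response in 96-well plates. GI50 is the concentration that inhibits growth by half.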 Calls of active or inactive are those of the source. Cut-off read from the data, not from the text of the source: active = GI50 up to about 1.1 µM and inactive = higher.

Tests used:
Assay in all cases: NCI tumour cell line growth inhibition, 48 h
[1] = system: A549
[2] = system: CAKI-1
[3] = system: DU-145
[4] = system: HCC 2998
[5] = system: HCT-116
[6] = system: HCT-15
[7] = system: HT-29
[8] = system: Hs-578T
[9] = system: LOX IMVI
[10] = system: M14
[11] = system: NCI/ADR-RES
[12] = system: OVCAR-4
[13] = system: OVCAR-8
[14] = system: RPMI-8226
[15] = system: RXF 393
[16] = system: SF-268
[17] = system: SK-MEL-2
[18] = system: SNB-75
[19] = system: UACC-257
[20] = system: K562

| Compound | GI50 [1] | GI50 [2] | GI50 [3] | GI50 [4] | GI50 [5] | GI50 [6] [µM] | GI50 [7] | GI50 [8] | GI50 [9] | GI50 [10] | GI50 [11] | GI50 [12] | GI50 [13] | GI50 [14] | GI50 [15] | GI50 [16] | GI50 [17] | GI50 [18] | GI50 [19] | GI50 [20] |
| --- | --- | --- | --- | --- | --- | --- | --- | --- | --- | --- | --- | --- | --- | --- | --- | --- | --- | --- | --- | --- |
| Fc1ccc(C(OCCN2CCC3CCC(C2)N3C/C=C/c2cccnc2)c2ccc(F)cc2)cc1 (stereo not given) | 11.8 µM (inactive) | 12 µM (inactive) | 15.8 µM (inactive) | 4.79 µM (inactive) | 5.93 µM (inactive) | 10 | 3.44 µM (inactive) | 12 µM (inactive) | 13.1 µM (inactive) | 2.53 µM (inactive) | 11.3 µM (inactive) | 12.6 µM (inactive) | 13 µM (inactive) | 3.43 µM (inactive) | 5.28 µM (inactive) | 12.8 µM (inactive) | 13.3 µM (inactive) | 14.2 µM (inactive) | 3.78 µM (inactive) | – |
| CC1=C(C(=O)OCCO[N+](=O)[O-])C(c2ccccc2[N+](=O)[O-])C(C(=O)OC(C)C)=C(C)N1 (stereo not given) | 16.3 µM (inactive) | 17 µM (inactive) | 20.7 µM (inactive) | 16 µM (inactive) | 15.4 µM (inactive) | 16.6 | 15.7 µM (inactive) | 14.8 µM (inactive) | 17.7 µM (inactive) | 15.8 µM (inactive) | 16.8 µM (inactive) | 18 µM (inactive) | 22.5 µM (inactive) | 84.9 µM (inactive) | 14.3 µM (inactive) | 20.4 µM (inactive) | 15.6 µM (inactive) | – | 15.3 µM (inactive) | 49.1 µM (inactive) |
| CC(O)CNC(=O)Nc1c(C(F)(F)F)cc(-c2ccccc2)[nH]c1=O (stereo not given) | > 100 µM (inactive) | > 100 µM (inactive) | > 100 µM (inactive) | > 100 µM (inactive) | > 100 µM (inactive) | > 100 | > 100 µM (inactive) | > 100 µM (inactive) | > 100 µM (inactive) | > 100 µM (inactive) | > 100 µM (inactive) | > 100 µM (inactive) | > 100 µM (inactive) | – | > 100 µM (inactive) | > 100 µM (inactive) | > 100 µM (inactive) | – | > 100 µM (inactive) | > 100 µM (inactive) |
| CC(=O)Oc1ccn2nc(C)c(Br)c2c1 | > 70.5 µM (inactive) | – | > 100 µM (inactive) | > 100 µM (inactive) | > 100 µM (inactive) | 65.2 | 53.3 µM (inactive) | > 100 µM (inactive) | 34 µM (inactive) | > 100 µM (inactive) | > 100 µM (inactive) | > 100 µM (inactive) | > 64.4 µM (inactive) | – | 65.3 µM (inactive) | > 53.8 µM (inactive) | > 54 µM (inactive) | > 44.1 µM (inactive) | 36.2 µM (inactive) | 39.2 µM (inactive) |
| c1cc(-c2ccc(-c3ccsc3)s2)cs1 | 22.4 µM (inactive) | 45.4 µM (inactive) | > 100 µM (inactive) | > 100 µM (inactive) | > 100 µM (inactive) | > 100 | 39.5 µM (inactive) | 40.5 µM (inactive) | 66.7 µM (inactive) | 31 µM (inactive) | 30.4 µM (inactive) | 18.1 µM (inactive) | 48.8 µM (inactive) | > 100 µM (inactive) | 73.1 µM (inactive) | > 100 µM (inactive) | – | 23.9 µM (inactive) | > 100 µM (inactive) | > 100 µM (inactive) |
| Cc1csc(NNC(N)=O)n1 | > 100 µM (inactive) | > 100 µM (inactive) | > 100 µM (inactive) | > 100 µM (inactive) | > 100 µM (inactive) | > 100 | > 100 µM (inactive) | > 100 µM (inactive) | > 100 µM (inactive) | > 100 µM (inactive) | > 100 µM (inactive) | > 100 µM (inactive) | > 100 µM (inactive) | – | > 100 µM (inactive) | > 100 µM (inactive) | > 100 µM (inactive) | > 100 µM (inactive) | > 100 µM (inactive) | – |
| CC(C)[Si](OC1=C(c2ccccc2)C(NC(=O)/C=C/c2ccc([N+](=O)[O-])cc2)CCC1)(C(C)C)C(C)C (stereo not given) | > 100 µM (inactive) | – | > 100 µM (inactive) | > 100 µM (inactive) | > 100 µM (inactive) | > 100 | > 100 µM (inactive) | > 100 µM (inactive) | > 100 µM (inactive) | > 100 µM (inactive) | > 100 µM (inactive) | – | > 100 µM (inactive) | 9.71 µM (inactive) | > 100 µM (inactive) | > 100 µM (inactive) | > 100 µM (inactive) | > 100 µM (inactive) | > 100 µM (inactive) | > 100 µM (inactive) |
| N#Cc1nc(CCc2nc(C#N)c(N)o2)oc1N | > 10 µM (inactive) | > 10 µM (inactive) | > 10 µM (inactive) | > 10 µM (inactive) | > 10 µM (inactive) | > 10 | > 10 µM (inactive) | > 10 µM (inactive) | > 10 µM (inactive) | > 10 µM (inactive) | > 10 µM (inactive) | > 10 µM (inactive) | > 10 µM (inactive) | > 10 µM (inactive) | > 10 µM (inactive) | > 10 µM (inactive) | – | > 10 µM (inactive) | > 10 µM (inactive) | > 10 µM (inactive) |
| c1ccc([P+](c2ccccc2)(c2ccccc2)C2c3ccccc3-c3ccccc32)cc1 | 2.88 µM (inactive) | 3.46 µM (inactive) | 2.87 µM (inactive) | 2.6 µM (inactive) | 0.473 µM (active) | 3.01 | 0.74 µM (active) | 2.21 µM (inactive) | 1.32 µM (inactive) | 3.14 µM (inactive) | 15.3 µM (inactive) | – | 2.81 µM (inactive) | 1.35 µM (inactive) | 1.86 µM (inactive) | 2.77 µM (inactive) | 1.71 µM (inactive) | 2.45 µM (inactive) | 2.31 µM (inactive) | 1.9 µM (inactive) |
| OC1(c2ccccc2)CSc2ncnn21 (stereo not given) | > 100 µM (inactive) | > 100 µM (inactive) | 41.1 µM (inactive) | > 100 µM (inactive) | > 100 µM (inactive) | > 100 | > 100 µM (inactive) | > 100 µM (inactive) | > 100 µM (inactive) | > 100 µM (inactive) | > 100 µM (inactive) | > 100 µM (inactive) | > 100 µM (inactive) | – | > 100 µM (inactive) | > 100 µM (inactive) | > 100 µM (inactive) | > 100 µM (inactive) | > 100 µM (inactive) | > 100 µM (inactive) |
| CC1(C)CC(C)(C)C1=NNC(N)=O | > 100 µM (inactive) | > 100 µM (inactive) | > 100 µM (inactive) | > 100 µM (inactive) | > 100 µM (inactive) | > 100 | > 100 µM (inactive) | > 100 µM (inactive) | > 100 µM (inactive) | > 100 µM (inactive) | > 100 µM (inactive) | > 100 µM (inactive) | > 100 µM (inactive) | – | > 100 µM (inactive) | > 100 µM (inactive) | > 100 µM (inactive) | > 100 µM (inactive) | > 100 µM (inactive) | > 100 µM (inactive) |
| C(=C/c1nnnn1-c1ccccc1)/Nc1ccccc1 | 52.4 µM (inactive) | 43 µM (inactive) | 24.7 µM (inactive) | 21.7 µM (inactive) | 31.9 µM (inactive) | 21.5 | 28.2 µM (inactive) | 31.8 µM (inactive) | 28.1 µM (inactive) | 26.1 µM (inactive) | 24.6 µM (inactive) | – | 29.5 µM (inactive) | 31 µM (inactive) | 53 µM (inactive) | 31.7 µM (inactive) | 2.64 µM (inactive) | 27.5 µM (inactive) | 36.5 µM (inactive) | 20.7 µM (inactive) |
| COc1ccc(/C=C2\N=C3N(Cc4ccccc4)C=C(N)N3C2=O)cc1 | > 100 µM (inactive) | > 100 µM (inactive) | > 100 µM (inactive) | > 100 µM (inactive) | > 100 µM (inactive) | > 100 | > 100 µM (inactive) | 28.8 µM (inactive) | > 100 µM (inactive) | > 100 µM (inactive) | > 100 µM (inactive) | > 100 µM (inactive) | 64.6 µM (inactive) | – | > 100 µM (inactive) | > 100 µM (inactive) | > 100 µM (inactive) | 17.5 µM (inactive) | 30.8 µM (inactive) | > 100 µM (inactive) |
| COc1ccc(N2C(=O)C3c4[nH]c5ccc(OCc6ccccc6)cc5c4C4CCC(C(C)(C)C)CC4C3C2=O)cc1 (stereo not given) | > 100 µM (inactive) | > 100 µM (inactive) | > 100 µM (inactive) | > 100 µM (inactive) | 42.4 µM (inactive) | > 100 | > 100 µM (inactive) | 54.2 µM (inactive) | > 100 µM (inactive) | 78.7 µM (inactive) | 63.5 µM (inactive) | 29.8 µM (inactive) | 46.3 µM (inactive) | > 100 µM (inactive) | > 100 µM (inactive) | > 100 µM (inactive) | > 100 µM (inactive) | – | > 100 µM (inactive) | > 100 µM (inactive) |
| CCOC(=O)c1cc(C)nc2c1c(=O)n(-c1ccccc1)c(=O)n2CCCCN1CCN(c2ncccn2)CC1 | > 100 µM (inactive) | 23.4 µM (inactive) | > 100 µM (inactive) | > 100 µM (inactive) | 85.5 µM (inactive) | – | > 100 µM (inactive) | > 100 µM (inactive) | 56.9 µM (inactive) | > 100 µM (inactive) | > 100 µM (inactive) | – | > 100 µM (inactive) | 23.8 µM (inactive) | > 100 µM (inactive) | > 100 µM (inactive) | > 100 µM (inactive) | 59 µM (inactive) | 52.4 µM (inactive) | 39.1 µM (inactive) |
